Results: patent US9957264B2 (Merck Sharp & Dohme Corp., priority 2013, dated 2018)

Assays:
[1] = target: JAK1 (recombinant purified GST-tagged catalytic domain) (Homo sapiens (Human), UniProt P23458); experiment: Jak Biochemical HTRF Assay (JAK1); settings: [ATP] 31.8 μM
Method in brief: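 Kinase reaction with biotinylated peptide substrate was started by ATP addition and run 120 min at room temperature, then quenched with EDTA stop buffer containing streptavidin-Dylight 650 and Eu-pY20 antibody. HTRF read 60 min later (665/615 nm ratio); percent inhibition vs log concentration fit to 4-parameter curve for IC50.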

[2] = target: JAK2 (recombinant purified GST-tagged catalytic domain) (Homo sapiens (Human), UniProt O60674); experiment: Jak Biochemical HTRF Assay (JAK2); settings: [ATP] 8.5 μM
Sequence of JAK2 (recombinant purified GST-tagged catalytic domain) (O60674 849-1124): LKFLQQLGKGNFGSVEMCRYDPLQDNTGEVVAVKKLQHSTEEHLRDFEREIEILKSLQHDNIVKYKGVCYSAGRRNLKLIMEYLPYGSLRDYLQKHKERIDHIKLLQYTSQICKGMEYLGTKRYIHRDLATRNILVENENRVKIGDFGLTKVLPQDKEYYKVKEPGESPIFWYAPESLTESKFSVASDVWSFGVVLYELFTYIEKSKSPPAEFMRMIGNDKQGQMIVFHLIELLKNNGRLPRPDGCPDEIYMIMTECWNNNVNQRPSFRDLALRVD
Method: Jak Biochemical HTRF Assay Protocol
The ability of compounds to inhibit the activity of JAK1, JAK2, JAK3, and Tyk2 was measured using a recombinant purified GST-tagged catalytic domain for each enzyme (Invitrogen JAK1 #M4290, JAK2 #M4290, JAK3 #M4290, Tyk2 #M4290) in an HTRF format biochemical assay. […] The basic assay protocol is as follows: First, 250 nL of diluted compounds in DMSO were dispensed into the wells of a dry 384-well Black plate (Greiner #781076) using a Labcyte Echo 555 acoustic dispenser. Subsequent reagent additions employed an Agilent Bravo. […] After equilibration, 2 μL of 10×ATP in 1× assay buffer was added to initiate the kinase reaction and the plates were shaken and then incubated at room temperature for 120 minutes. […] Plates were shaken and centrifuged and then incubated 60 minutes at room temperature and then read on a Perkin Elmer Envision (λex=337 nm, λem=665 and 615 nm, TRF delay time=20 μs). HTRF signal=10,000*665 nm reading/615 nm reading. After normalization to untreated controls, the percent inhibition of the HTRF signal at each compound concentration was calculated. The plot of percent inhibition versus the log of compound concentration was fit with a 4-parameter dose response equation to calculate IC50 values.
Final reaction conditions were:
Examples of the instant invention were evaluated in JAK1 and JAK2 in vitro binding assays as described above.

Sequence of JAK1 (recombinant purified GST-tagged catalytic domain) (P23458 875-1153): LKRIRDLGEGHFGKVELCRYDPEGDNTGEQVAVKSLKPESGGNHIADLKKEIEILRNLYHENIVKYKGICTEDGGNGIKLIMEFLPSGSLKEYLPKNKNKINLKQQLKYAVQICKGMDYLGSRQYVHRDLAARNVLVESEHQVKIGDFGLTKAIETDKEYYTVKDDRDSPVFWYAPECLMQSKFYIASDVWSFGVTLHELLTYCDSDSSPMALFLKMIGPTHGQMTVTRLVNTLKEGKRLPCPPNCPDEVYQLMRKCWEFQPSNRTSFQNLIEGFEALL

Compound | IC50 [1] | IC50 [2]
Cc1cc(Nc2nn([C@@]3(CC#N)CCCC[C@H]3F)c3cc[nH]c(=O)c23)ccc1C(=O)N1CCC(F)(F)CC1 [Example 5-153, 2-((1R,2R)-1-(3-((4-(4,4-difluoropiperidine-1-carbonyl)-3-methylphenyl)amino)-4-oxo-4,5-dihydro-1H-pyrazolo[4,3-c]pyridin-1-yl)-2-fluorocyclohexyl) acetonitrile] | 90 pM | 80 pM
Cc1cc(Nc2nn([C@@]3(CC#N)CCOC[C@H]3F)c3cc[nH]c(=O)c23)ccc1C(=O)N1CCSCC1 (single isomer, unassigned) [Example 5-261, 2-((3S,4S or 3R,4R)-3-fluoro-4-(3-(3-methyl-4-(thiomorpholine-4-carbonyl)phenylamino)-4-oxo-4,5-dihydropyrazolo[4,3-c]pyridin-1-yl)-tetrahydro-2H-pyran-4-yl)acetonitrile] | 2260 pM | 2740 pM
CC(C)(C)OC(=O)N1CCC(CC#N)(n2nc(Nc3ccc(S(N)(=O)=O)cc3)c3c(=O)[nH]ccc32)CC1 [Example 5-4, tert-butyl 4-(cyanomethyl)-4-{4-oxo-3-[(4-sulfamoylphenyl)amino]-4,5-dihydro-1H-pyrazolo[4,3-c]pyridin-1-yl}piperidine-1-carboxylate] | 120 pM | 230 pM
N#CC[C@@]1(n2nc(Nc3ccc(C4(C(F)(F)F)CC4)cc3)c3c(=O)[nH]ccc32)CCCOC1 [Example 5-224, (S)-2-(3-(4-oxo-3-((4-(1-(trifluoromethyl)cyclopropyl)phenyl)amino)-4,5-dihydro-1H-pyrazolo[4,3-c]pyridin-1-yl)tetrahydro-2H-pyran-3-yl)acetonitrile] | 360 pM | 3000 pM
COC(=O)N1CCC(CC#N)(n2nc(Nc3ccc4c(c3)CN(C)S4(=O)=O)c3c(=O)[nH]ccc32)CC1 [Example 5-70, methyl 4-(cyanomethyl)-4-[3-[(2-methyl-1,1-dioxo-2,3-dihydro-1,2-benzothiazol-5-yl)amino]-4-oxo-1H,4H,5H-pyrazolo[4,3-c]pyridin-1-yl]piperidine-1-carboxylate] | 70 pM | 580 pM
COC(=O)[C@@H]1CC[C@@](CC#N)(n2nc(Nc3ccc(S(C)(=O)=O)cc3)c3c(=O)[nH]ccc32)CO1 (racemic) [Example 5-32, (2S,5S and 2R,5R)-methyl 5-(cyanomethyl)-5-(3-((4-(methylsulfonyl)phenyl)amino)-4-oxo-4,5-dihydro-1H-pyrazolo[4,3-c]pyridin-1-yl)tetrahydro-2H-pyran-2-carboxylate] | 130 pM | 870 pM
N#CC[C@]1(n2nc(Nc3ccc([C@]4(C(F)(F)F)CCCCN4)cc3)c3c(=O)[nH]ccc32)CCOC[C@H]1F (single isomer, unassigned) [Example 5-263, 2-((3S,4S or 3R,4R)-3-fluoro-4-(4-oxo-3-((4-((S or R)-2-(trifluoromethyl)piperidin-2-yl)phenyl)amino)-4,5-dihydro-1H-pyrazolo[4,3-c]pyridin-1-yl)tetrahydro-2H-pyran-4-yl)acetonitrile] | 480 pM | 770 pM
CC(C)S(=O)(=O)c1ccc(Nc2nn([C@]3(CC#N)CCCOC3)c3cc[nH]c(=O)c23)cc1 [Example 5-179, {(3S)-3-[3-({4-[(1-methylethyl)sulfonyl]phenyl}amino)-4-oxo-4,5-dihydro-1H-pyrazolo[4,3-c]pyridin-1-yl]tetrahydro-2H-pyran-3-yl}acetonitrile] | 80 pM | 260 pM
N#CCC1(n2nc(Nc3ccc(S(=O)(=O)N4CCC4)cc3)c3c(=O)[nH]ccc32)CCCC1 [Example 5-132, 2-(1-(3-((4-(azetidin-1-ylsulfonyl)phenyl)amino)-4-oxo-4,5-dihydro-1H-pyrazolo[4,3-c]pyridin-1-yl)cyclopentyl)acetonitrile] | 390 pM | 680 pM
CC(C)(C)N1Cc2cc(Nc3nn([C@]4(CC#N)CCOC4)c4cc[nH]c(=O)c34)ccc2S1(=O)=O (single isomer, unassigned) [Example 5-248, (R or S)-2-(3-(3-((2-(tert-butyl)-1,1-dioxido-2,3-dihydrobenzo[d]isothiazol-5-yl)amino)-4-oxo-4,5-dihydro-1H-pyrazolo[4,3-c]pyridin-1-yl)tetrahydrofuran-3-yl)acetonitrile] | 390 pM | 9560 pM
COC(=O)[C@H]1CC[C@](CC#N)(n2nc(Nc3ccc(S(C)(=O)=O)cc3)c3c(=O)[nH]ccc32)CO1 (single isomer, unassigned) [Example 5-34, (2S,5S or 2R,5R)-methyl 5-(cyanomethyl)-5-(3-((4-(methylsulfonyl)phenyl)amino)-4-oxo-4,5-dihydro-1H-pyrazolo[4,3-c]pyridin-1-yl)tetrahydro-2H-pyran-2-carboxylate] | 4740 pM | 22600 pM
CC(C)(C)NC(c1ccc(Nc2nn([C@]3(CC#N)CCCOC3)c3cc[nH]c(=O)c23)cc1)C(F)(F)F (single isomer, unassigned) [Example 5-190, {(3S)-3-[3-({4-[(1S or 1R)-1-(tert-butylamino)-2,2,2-trifluoroethyl]phenyl}amino)-4-oxo-4,5-dihydro-1H-pyrazolo [4,3-c]pyridin-1-yl]tetrahydro-2H-pyran-3-yl}acetonitrile] | 210 pM | 380 pM

Results, then the molecule that gave them:

IC50 [1] | IC50 [2] | Compound
100 pM | 90 pM | Cc1cc(Nc2nn(C3(CC#N)CCN(c4ccc(C#N)cn4)CC3F)c3cc[nH]c(=O)c23)ccc1C(=O)N1CCSCC1 (stereo in doubt) [Example 15-6, 6-((3R,4R)-4-(cyanomethyl)-3-fluoro-4-(3-((3-methyl-4-(thiomorpholine-4-carbonyl)phenyl)amino)-4-oxo-4,5-dihydro-1H-pyrazolo[4,3-c]pyridin-1-yl)piperidin-1-yl)nicotinonitrile]
260 pM | 940 pM | N#CCC1(n2nc(Nc3ccc(C(F)(F)F)cc3)c3c(=O)[nH]ccc32)CCC(N2CC(F)C2)CC1 (single isomer, unassigned) [Example 18-1, 2-(4-(3-fluoroazetidin-1-yl)-1-(4-oxo-3-((4-(trifluoromethyl)phenyl)amino)-4,5-dihydro-1H-pyrazolo[4,3-c]pyridin-1-yl)cyclohexyl)acetonitrile]
510 pM | 790 pM | N#CC[C@]1(n2nc(Nc3ccc([C@@]4(C(F)(F)F)CCCCN4)cc3)c3c(=O)[nH]ccc32)CCOC[C@H]1F (single isomer, unassigned) [Example 5-264, 2-((3S,4S or 3R,4R)-3-fluoro-4-(4-oxo-3-((4-((R or S)-2-(trifluoromethyl)piperidin-2-yl)phenyl)amino)-4,5-dihydro-1H-pyrazolo[4,3-c]pyridin-1-yl)tetrahydro-2H-pyran-4-yl)acetonitrile]
6330 pM | 102000 pM | N#CC[C@]1(n2nc(Nc3ccc(C(F)(F)F)cc3)c3c(=O)[nH]ccc32)CC[C@H](Nc2ccccc2)CC1 [Example 18-4, Trans 2-(1-(4-oxo-3-((4-(trifluoromethyl)phenyl)amino)-4,5-dihydro-1H-pyrazolo[4,3-c]pyridin-1-yl)-4-(phenylamino)cyclohexyl)acetonitrile]
6900 pM | 33100 pM | CC(C)c1ccc(CN2CCC(CC#N)(n3nc(Nc4ccc(S(=O)(=O)N(C)C)cc4)c4c(=O)[nH]ccc43)CC2)cc1 [Example 8-4, 4-[(1-{4-(cyanomethyl)-1[4-(1-methylethyl)benzyl]piperidin-4-yl}-4-oxo-4,5-dihydro-1H-pyrazolo[4,3-c]pyridin-3-yl)amino]-N,N-dimethylbenzenesulfonamide]
80 pM | 730 pM | Cc1nc2ccc(Nc3nn([C@]4(CC#N)CC[C@@H](C(=O)OC(C)(C)C)OC4)c4cc[nH]c(=O)c34)cc2s1 [Example 21-1, (2S,5S)-tert-butyl 5-(cyanomethyl)-5-(3-((2-methylbenzo[d]thiazol-6-yl)amino)-4-oxo-4,5-dihydro-1H-pyrazolo[4,3-c]pyridin-1-yl)tetrahydro-2H-pyran-2-carboxylate]
7900 pM | 10000 pM | CC(C)(C)OC(=O)N1CCC(CC#N)(n2nc(Nc3ccc(C4(C(F)(F)F)CCN(Cc5ccccc5)C4)cc3)c3c(=O)[nH]ccc32)CC1 (single isomer, unassigned) [Example 5-281, (S or R) tert-butyl 4-(3-((4-(1-benzyl-3-(trifluoromethyl)pyrrolidin-3-yl)phenyl)amino)-4-oxo-4,5-dihydro-1H-pyrazolo[4,3-c]pyridin-1-yl)-4-(cyanomethyl)piperidine-1-carboxylate]
1200 pM | 1920 pM | CC(C)(C)OC(=O)N1CCC(CC#N)(n2nc(Nc3ccc(S(=O)(=O)NC4CCCCC4)cc3)c3c(=O)[nH]ccc32)CC1 [Example 5-292, tert-butyl 4-(cyanomethyl)-4-(3-((4-(N-cyclohexylsulfamoyl)phenyl)amino)-4-oxo-4,5-dihydro-1H-pyrazolo[4,3-c]pyridin-1-yl)piperidine-1-carboxylate]
